# Source: patent publication US20230124720A1, “APPLICATION OF ACRIDINEDIONE COMPOUND IN PREPARATION OF ANTI-DIABETIC DRUGS” (THE FOURTH MILITARY MEDICAL UNIVERSITY, priority 2020, published 2023)
# What was measured:
# [1] = system: MIN6 cells; test: Insulin secretion in PA-induced insulin-resistant MIN6 cells; format: cell-based, mouse; conditions: PA-induced IR model, 10 μmol/L, 24 h, 2.8 and 16.7 mmol/L glucose; P<0.001
# Method: MIN6 cells were seeded in 24-well plates and cultured as described in step 2.1 to a cell confluency of more than 80% and administrated in the following groups, with 12 replicates per group: (1) normal control group (Con): cultured with blank 1640 medium; (2) insulin resistance model panel (IR): treated with 0.125 mmol/L PA for 24 h to induce establishment of an insulin resistance model; (3) ADD-16 administration group (ADD): 10 μmol/L ADD-16 intervention was administered for 24 h after successful establishment of the insulin resistance model; (4) TAK875 control group (TAK875): 10 μmol/L TAK875 was administered as a positive control drug intervention for 24 h after successful establishment of the insulin resistance model; (5) metformin control group (MT): 10 mmol/L metformin was administered as a positive control drug intervention for 24 h after successful establishment of the insulin resistance model; (6) sitagliptin control group (ST): 10 μmol/L sitagliptin was administered as a positive control drug intervention for 24 h after successful establishment of the insulin resistance model. After the group administration, the medium was aspirated and washed 2 times with a KRB buffer without sugar, followed by the addition of the KRB buffer without sugar. […] After incubation at 37° C. for 1 h, all the medium in the wells was aspirated and centrifuged at 2000 rmp/min for 20 min, and the supernatant was collected and stored at −20° C. The insulin content was measured for each group.
# [2] = system: MIN6 cells; test: Western Blot / immunofluorescence of insulin signaling related molecules in insulin-resistant MIN6 cells; format: cell-based, mouse; conditions: insulin-resistant MIN6 cells, 24 h, P<0.001
# Method: MIN6 cells were seeded in culture dishes at the appropriate density and cultured as described in step 2.1 to a confluency of about 80%. Cells were divided into the following 5 groups: (1) normal control group (Con): cultured with blank 1640 medium; (2) insulin resistance model panel (IR): treatment with 0.125 mmol/L PA for 24 h to induce establishment of a MIN6 cell insulin resistance model; (3) 3 μmol/L ADD-16 administration group (ADD I): 3 μmol/L ADD-16 intervention was given for 24 h after successful establishment of the insulin resistance model; (4) 10 μmol/L ADD-16 administration group (ADD II): 10 μmol/L ADD-16 intervention was given for 24 h after successful establishment of the insulin resistance model; (5) TAK875 control group (TAK875): 10 μmol/L TAK875 was administered as a positive control drug intervention for 24 h after successful establishment of the insulin resistance model. At the end of the group administration, groups of cells were harvested for WB or IF experiments.
# [3] = system: STZ-induced T2DM rats; test: Postprandial blood glucose in STZ-induced T2DM rats; format: in vivo, rat; conditions: end of administration
# Method: (§1) 150 male SD rats, housed in cages in a clean constant temperature (23±2° C.) and humidity (55±10%) animal house, were manually adjusted on a daily 12 h/12 h diurnal light cycle with free access to water. After 3 days of adaptive feeding, 150 rats were randomly divided into normal and model groups. The normal (Con, n=15) group of rats remained on raw chow and the model group (n=135) of rats were given high fat high sugar chow. All rats were fed twice daily and the amount of feed was adjusted as needed to ensure adequate feed. After 8 weeks of group feeding, the model group rats were given an intraperitoneal injection of 25 mg/kg STZ solution with a 12 h fast prior to injection. After injection, feeding was continued as in the original method, blood was taken from the tail vein at 72 h for blood glucose measurement, and rats with fasting blood glucose levels ≥11.1 mmol/L on different days were screened for successful artificial induction of T2DM and administered in groups for the next experiment. 135 rats with successful modeling were randomly divided into 9 groups: […] (2) 0.01 mg/kg ADD-16 administration group (ADD I, n=15): daily administration of 0.01 mg/kg ADD-16 solution by gavage; (3) 0.1 mg/kg ADD-16 administration group (ADD II, n=15): daily administration of a 0.1 mg/kg ADD-16 solution by gavage; (4) 1 mg/kg ADD-16 administration group (ADD III, n=15): daily administration of a 1 mg/kg ADD-16 solution by gavage; (5) 3 mg/kg ADD-16 administration group (ADD IV, n=15): daily administration of a 3 mg/kg ADD-16 solution by gavage; (6) 10 mg/kg ADD-16 administration group (ADD V, n=15): daily administration of a 10 mg/kg ADD-16 solution by gavage; (7) 50 mg/kg ADD-16 administration group (ADD VI, n=15): daily administration of a 50 mg/kg ADD-16 solution by gavage; […] (9) Sitagliptin control group (ST, n=15): daily administration of a 6 mg/kg sitagliptin solution by gavage. […] Relevant indicators of lipid metabolism were measured after the end of the study.
# [4] = system: STZ-induced T2DM rats; test: Insulin tolerance test (ITT) in T2DM rats; format: in vivo, rat
# Method: as §1, with “study. […] After the 120 min blood glucose value determination was completed, the diet was resumed. In the test, the condition of the rats was observed, and when abnormalities occurred, the experiment was stopped in time and a glucose solution was given by gavage to prevent death due to hypoglycemia.” for “study.”
# [5] = MT group, 250 mg/kg daily by gavage
# [6] = ST group, 6 mg/kg daily by gavage
SMILES,insulin secretion level in insulin-resistant MIN6 cells (in words) [1],"expression of insulin signaling-related molecules, Western Blot (in words) [2]","reduction in blood glucose compared to the TD group [3, 5]","decrease of ITT AUC compared to the TD group [4, 5]","reduction in blood glucose compared to the TD group [3, 6]","decrease of ITT AUC compared to the TD group [4, 6]"
"Cc1cc(OCCCS(C)(=O)=O)cc(C)c1-c1cccc(COc2ccc3c(c2)OC[C@H]3CC(=O)O)c1 [TAK875, reference compound]",even higher than in Con group,"upregulate GPR40, PGC-1α, P-P38, P-EP300, PPARγ, P-AKT, PI3K, IRS1 and GLUT4 expression",–,–,–,–
"CN(C)C(=N)N=C(N)N [metformin, reference compound]",–,–,45.0%,39.9%,–,–
"N[C@@H](CC(=O)N1CCn2c(nnc2C(F)(F)F)C1)Cc1cc(F)c(F)cc1F [sitagliptin, reference compound]",even higher than in Con group,–,–,–,61.5%,51.4%
